Among the data in PubChem BioAssay (NCI) are GI50 and TGI values, retold here.

Experiment in all cases: NCI tumour cell line growth inhibition, 48 h
The test system of assay [1] is HCT-15 colon.
Assay [2] deals with HS 578T breast.
In assay [3] the test system is MDA-MB-435.
The test system of assay [4] is OVCAR-3 ovarian.
The subject of assay [5] is OVCAR-4 ovarian.
The test system of assay [6] is OVCAR-8 ovarian.
The test system of assay [7] is RXF 393 renal.
Assay [8] deals with SK-MEL-28 melanoma.
Assay [9] has as its system SR leukemia.
Assay [10] relates to SW-620 colon.

“And” between values parts separate entries of the source, which are not always exact repeats. Identical values can stand only once.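 Results reflect a 48-hour exposure of cells in 96-well plates to compound at five concentrations. The concentration for 50% growth inhibition is given as GI50. TGI marks complete inhibition of growth.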 Bounds are passed on as bounds.

Consider `CN[C@@H](C)C(=O)N[C@H](C(=O)N1CCC[C@H]1c1nc(C(=O)c2ccc(F)cc2)cs1)C1CCCCC1`, for which the GI50 is 27.7 µM in [1]; 19 µM in [2]; 16.3 µM in assay [3]; 25.5 µM in [4]; 0.51 µM in [5]; 11.1 µM in [6]. For the same molecule, the GI50 is 1.94 µM in assay [7], 16.6 µM in [8], 11.5 µM in assay [9] and 27.4 µM in [10]. Moreover, the TGI in [1] was over 95.9 µM; in [2], 74.1 µM; in assay [3], 40.6 µM; in [4] it was over 100 µM; in assay [5] it was 13.9 µM; in assay [6], 29.3 µM. For the same molecule, the TGI in assay [7] was 16.3 µM; in assay [8], 32 µM; in assay [9], 38 µM; in assay [10], over 77.6 µM.
For the molecule `COc1cc(/C=C/C(=O)c2c(C)n([O-])c3ccccc3[n+]2=O)cc(OC)c1OC`, the GI50 in [1] is 4 µM; in [2], 3.51 µM; in assay [3], 5.4 µM; in [4], 5.17 µM; in assay [5], 10.8 µM; in assay [6], 4.43 µM. In addition, the GI50 is 5.85 µM in assay [7], 11.2 µM in assay [8], 2.75 µM in assay [9] and 4.99 µM in assay [10]. In addition, the TGI in assay [1] is 15.6 µM; in [2] it was 21 µM; in assay [3], 22.5 µM; in assay [4] it was 18.6 µM; in assay [5], over 100 µM; in assay [6], 17.7 µM. Also, the TGI in [7] was determined as 20.4 µM; in assay [8], 28.9 µM; in [9], 14.9 µM; in [10], 17.1 µM.
For the molecule `OCc1c(-c2cccs2)oc(-c2cccs2)c1CO`, the GI50 is 40.1 µM in [1]; 44.2 µM in assay [2]; 46.9 µM in assay [3]; 48.1 µM in assay [4]; over 100 µM in [5]; 50.7 µM in [6]. Besides, the GI50 was 22.7 µM in [7], over 100 µM in assay [8], 32.5 µM in [9] and 63.6 µM in assay [10]. Also, the TGI in [1], in [2], in [3], in assay [4], in [5] and in assay [6] was over 100 µM in each case. Also, the TGI in assay [7] was 78.5 µM; in assay [8] it was over 100 µM; in assay [9] it was 60.5 µM; in assay [10], over 100 µM.
Consider `CCC/C=C/C=C/C(=O)OC1/C(=C/C(=O)OC)CC2CC(C(C)O)OC(=O)CC(O)CC3CC(OC(C)=O)C(C)(C)C(O)(CC4C/C(=C/C(=O)OC)CC(/C=C/C(C)(C)C1(O)O2)O4)O3` (stereo not given), for which the GI50 is 5.15 µM and 10.8 µM and > 12.5 µM in assay [1]; over 12.5 µM in assay [2]; over 12.5 µM in assay [3]; > 10.9 µM and 8.33 µM and > 12.5 µM in assay [4]; > 6.88 µM and 3.48 µM and > 12.5 µM in assay [5]; > 10.9 µM and 7.33 µM and > 12.5 µM in assay [6]. For the same molecule, the GI50 in [7] is 10.6 µM and 5.25 µM and > 12.5 µM; in assay [8], 8.54 µM and > 12.5 µM; in [9], 10.8 µM; in assay [10] it was > 10.9 µM and 2.99 µM and > 12.5 µM. Besides, the TGI is 7.35 µM and 11 µM and > 12.5 µM in assay [1]; 10.8 µM and > 12.5 µM in [2]; 11 µM and > 12.5 µM in [3]; > 10.9 µM and 11 µM and > 12.5 µM in assay [4]; > 6.88 µM and 10.1 µM and > 12.5 µM in assay [5]; > 10.9 µM and 11 µM and > 12.5 µM in [6]. Moreover, the TGI is 10.9 µM and > 12.5 µM in [7]; > 10.9 µM and 11 µM and > 12.5 µM in [8]; 11 µM and > 12.5 µM in [9]; > 10.9 µM and 4.91 µM and > 12.5 µM in assay [10].
For the molecule `COc1ccc2[nH]c3c(C)c4c(c(C)c3c2c1)CN(C)C=C4`, the TGI was determined as 75.1 µM in assay [1]; 1.48 µM in assay [2]; 71.2 µM in [3]; 34.9 µM in assay [4]; 18.2 µM in [5]; 13.6 µM in assay [6]. Moreover, the TGI in assay [7] stood at 30.4 µM; in [8] it was 13.5 µM; in [9], 46.3 µM; in assay [10] it was 18.3 µM.
`O=C1OC(c2ccc([N+](=O)[O-])cc2)=N/C1=C\c1ccc(Cl)cc1`: the TGI in assay [1], in [2], in assay [3], in assay [4], in assay [5] and in assay [6] was over 100 µM in each case. Further, the TGI in assay [7], in assay [8], in [9] and in assay [10] was over 100 µM each time.
Consider `O=C(O)CCCN1C(=O)/C(=C/C(Cl)=C/c2ccccc2)SC1=S`, for which the GI50 was 1.03 µM in assay [1]; 2.73 µM in assay [2]; 1.94 µM in assay [3]; 1.39 µM in [4]; 2.77 µM in assay [5]; 1.48 µM in assay [6]. For the same molecule, the GI50 in assay [7] was 1.36 µM; in [8] it was 1.66 µM; in assay [9], 0.719 µM; in [10], 1.3 µM. The TGI in assay [1] was determined as 6.06 µM; in [2], 10.6 µM; in [3] it was 5.96 µM; in assay [4], 3.21 µM; in assay [5], 14.3 µM; in [6], 13.8 µM. In addition, the TGI is 2.78 µM in assay [7], 3.47 µM in assay [8], 15.3 µM in assay [9] and 3.86 µM in [10].
For the molecule `O=C(CSSCC(=O)c1ccc(Cl)cc1)c1ccc(Cl)cc1`, the GI50 is 6.73 µM in assay [1]; 7.51 µM in assay [2]; 2.57 µM in assay [3]; 5.39 µM in [4]; 18.3 µM in assay [5]; 5.06 µM in assay [6]. For the same molecule, the GI50 is 4.49 µM in assay [7], 5.83 µM in assay [8], 2.82 µM in assay [9] and 4.13 µM in assay [10]. Besides, the TGI is 28.6 µM in [1]; over 100 µM in assay [2]; 11 µM in [3]; 26.1 µM in assay [4]; 93.9 µM in assay [5]; 23.2 µM in assay [6]. For the same molecule, the TGI in assay [7] was 14.7 µM; in assay [8], 22.5 µM; in [9], over 100 µM; in assay [10], 23.6 µM.
